Test results reported in US20160039852A1, “THERAPEUTIC USES OF BISPHOSPHONATES” (THE UNIVERSITY OF SHEFFIELD, priority 2013, published 2016).
Entries after “also recorded” stand apart in the source; their conditions may differ.

Experiments:
[1] = test system: intestinal crypt and villi; test: Murine intestine regeneration following irradiation; assay type: in vivo, C57BL6/J mice; conditions: Zol 125 μg/kg i.p. 3 days prior to 9Gy
Method: Mice (C57BL6/J) were injected with either Zoledronate (single dose, i.p.,125 μg/kg) or PBS. On day 3 post-injection, Mice were exosed to whole body irradiation (9Gy; n=3/group) using 137Cs Gamma source. Within 24 hours from irradiation systemic bone marrow transplantation was performed to prevent myelotoxicity. mice were sacrificed 4 days post-irradiation for histological analysis of
Intestinal tissue. At the time of harvest this was divided with a scalpel into duodenum, ileum-jejunum, colon and rectum, and each region was further cut into 0.5 cm pieces that were placed in histological cassettes and stored in 70% ethanol prior to embedding. Tissues were paraffin embedded and sectioned at 3-5 μm thickness and mounted onto […] coated glass microscope slides. The slides were de-waxed in xylene (BDH, Leister, UK) and rehydrated by passing through a series of ethanol dilutions. The nuclei were stained by placing in Gill's haematoxylin (Sigma, Poole, UK), washed with water followed by staining of cytoplasm in alcoholic eosin (Sigma, Poole, UK) and washed. Slides were dehydrated through a series of graded alcohols and cleared in xylene for 3 minutes prior to mounting with DPX and coverslip to examine under microscope. Stained tissue sections were scanned on the Aperio Slide Scanner (Leica Biosystems, Newcastle, UK). To obtain villi length and crypt depth, images were analysed on the Aperio ImageScope Software (v11.2.0.780) and using the ruler tool, measurements were taken on a surface of 0.525 mm^2 at 3 different levels.

mTOR pathway [2] = test: Western blot of mTOR pathway effectors in osteosarcoma line MG63; assay type: cell-based, human; conditions: MG63, Zol (1 μM) for 72 h, n=3
Method: (B) A representative example of human mesenchymal stem cells (MSC) and human osteosarcoma cell line MG63 cultured in presence or absence of Zol (1 μM) for 72 h and assessed for the expression of phosphorylated (Ser 473) AKT, AKT, phosphorylated p70S6K p70S6K and GAPDH by western blot;
(§1) Protein lysates (50 μg) were diluted in equal volume of 2× Laemmli buffer (Gibco) containing Dithiothreitol (DTT, Sigma,UK). The samples were heated at 95° C. for 5 minutes and loaded on a 12% Tris-glycine gel. After electro-blotting, membranes were blocked with 5% Bovine serum albumin (BSA) in 0.1% Tween 20 in PBS (PBS-T) for detection of glyceraldehyde-3-phosphate dehydrogenase (GAPDH) and 5% dry milk in PBS-T for detection of unprenylated RAP1A (Santacruz Biotechnology, Santa Cruz, USA). […] Detection was carried out using enhanced chemi-luminescence plus ECL reaction kit (GE Healthcare, Buckinghamshire, UK) and quantification of protein expression was carried out using image J software.
(§2) To test this, the inventors assessed the phosphorylation state of two effectors downstream of TORC1 and TORC2, p-P70S6K and pAKT (Ser473) respectively (FIG. 7A), in hMSC in presence or absence of Zol. […]

mTOR pathway [3] = test: Western blot of mTOR pathway effectors in hMSC; assay type: cell-based, human
Method: Three times 10^6 hMSC were lysed in mammalian cell lysis buffer (Mammalian cell lysis kit, Sigma-Aldrich, Dorset, UK) containing 250 mM Tris-5 mM EDTA, 750 mM sodium chloride, 0.5% sodium dodecyl sulphate, 2.5% deoxycholic acid and 5% Igepal supplemented with 10 μl of Proteinase inhibitors cocktail (Sigma-Aldrich, Dorset, UK) containing 4-(2-aminoethyl) benzenesulfonyl fluoride (AEBSF), pepstatin A, bestatin, leupeptin, aprotinin and trans-epoxysuccinyl-L-leucyl-amido(4-guanidino)-butane (E-64) according to manufacturer instruction. Phosphatase inhibitor cocktail (Sigma) was also added when preparing lysates for the detection of AKT, pAKT, P70S6K, and p-P70S6K.
as §1, with “USA). In case of P-AKT, P-70S6K membranes were blocked with 5%BSA in 1× tris buffered saline and 0.1% tween-20 (TBS-T), where for AKT and P70S6K membranes were blocked with 5% dry milk in TBS-T. All membranes were blocked for 2 hours at room temperature. The antibody sc1482 for the detection of RAP1A (Santacruz, USA) was diluted in TBS-T at 1:1000. Antibodies for the detection of AKT, P-AKT, P-70S6K AND PP70S6K, (Cell Signalling Technologies, USA) were diluted at 1:1000. GAPDH antibody (Abcam, Cambridge) was diluted at 1:30000.” for “USA).”
as §2

unprenylated RAP1A = test: Western blot of unprenylated RAP1A in cancer lines; assay type: cell-based, human and murine; conditions: Zol (1 μM) for 72 h
Method: (A) A representative example of western blot analysis of human mesenchymal stem cells (MSC) and human and murine prostate cancer cell lines (human: PC3, murine 178-2 BMA), human breast cancer cell line (MDA-MB231), murine multiple myeloma cancer lines (5TGM1 and 5T33) cultured in presence or absence of Zol (1 μM) for 72 h and assessed for the expression of unprenylated RAP1A and GAPDH.
as §1, with “USA). In case of P-AKT, P-70S6K membranes were blocked with 5%BSA in 1× tris buffered saline and 0.1% tween-20 (TBS-T), where for AKT and P70S6K membranes were blocked with 5% dry milk in TBS-T. All membranes were blocked for 2 hours at room temperature.” for “USA).”

[4] = test system: human mesenchymal stem cells (hMSC); test: Colony Forming Unit-Fibroblast assay (CFU-F), clonogenic ability of hMSC; assay type: cell-based; conditions: 14 days, listed as Zol
Method: Human MSC from established cultures were plated at 10 cells/cm^2 in duplicates in MSC medium. The plates were incubated for 14 days at 37° C. in 5% carbon dioxide in air. At day 14 cultures were stained with Wright's Giemsa stain (VWR International, Leicestershire, UK). Briefly, media was aspirated and the plates were washed with PBS (Gibco). The plates were air dried for 5 minutes and fixed with methanol (Fisher Scientific, Loughborough, UK) for 5 minutes. Wright's Geimsa stain (VWR International) was thereafter added to the plates for 5 minutes and then plates were washed under running tap water. The purple stained colonies were counted using an inverted light microscope (Leica Microsystems, UK). Colonies containing a minimum of 50 cells were considered as one Colony forming unit-fibroblast (CFU-F).

[5] = test system: human mesenchymal stem cells (hMSC); test: hMSC growth kinetics, cumulative population doublings with time in culture; assay type: cell-based
[6] = assessed 4 days later, n=3/group
[7] = hMSC exposed to Zol (1 μM) for 72 h, n=3

Compound: O=P(O)(O)C(O)(Cn1ccnc1)P(=O)(O)O [Zoledronate]
- protection of intestinal crypt and villi following irradiation [1]: protects intestinal crypt and villi
- intestinal crypt depth [1, 6]: improved
- villi length [1, 6]: improved
- p-P70S6K (mTOR pathway [2]): no significant difference
- pAKT (Ser473) (mTOR pathway [2]): no significant difference
- mTOR signaling (p-mTOR, p-P70S6K, p-AKT, p-FOXO3A), FIG. 12 (mTOR pathway [3]; hMSC exposed to Zol): inhibition of mTOR signaling
- p-P70S6K (mTOR pathway [3]; [7]): significant decrease
- pAKT (Ser473) (mTOR pathway [3]; [7]): significant decrease
- mevalonate pathway (unprenylated RAP1A) (unprenylated RAP1A): inhibition of mevalonate pathway
- number of clonogenic progenitors (CFU-F) ([4]; hMSC at passage 8, not irradiated, versus PBS control): significant increase; also recorded: higher clonogenic ability
- number of CFU-F after irradiation (clonogenic ability) ([4]; hMSC irradiated at 1, 3 and 5Gy versus non irradiated, in presence of Zol): no significant difference; also recorded: complete rescue of the clonogenic ability
- population doublings after which cultures were still proliferating ([5]; hMSC grown in presence of Zol (1 μM), PBS cultures senesced after 21-27 PDs, n=3): 29-36 PDs
- ability of hMSC to proliferate and differentiate following irradiation ([5]; irradiated at 3 Gy, Zol for 3 days, washed off 12 h later): rescues hMSCs ability to proliferate and differentiate
- hMSC life span / time of proliferation in culture ([5]; versus PBS control, listed as Zol): extension of life span; also recorded: proliferated for a longer time than control cells
